Here are results for three compounds from US6429209B2, “Methods for treating irritable bowel syndrome” (SmithKline Beecham Corporation, priority 1997, dated 2002).

Like-named read-outs stand apart in the source and are kept apart here.

Series [1] deals with IBS patients. The settings on record: cited from earlier work.
Series [2] deals with IBS patients. As to the kind of experiment: 12-week placebo-controlled clinical study of alosetron (1, 2, 4 or 8 mg BID) in nonconstipated IBS patients. Type of series: in vivo, human. The settings on record: for % Responders (adequate relief of IBS pain and discomfort): 12 weeks; for % Days with Urgency / Stool # per day / Stool Consistentcy: mean, week 9-12 interval; for Stool Consistentcy: score 1= very hard to 5= watery; for % Weeks with adequate relief: median. The method, then: Three hundred and seventy IBS patients were randomised for study: 80 were randomised to treatment with placebo BID, 72 to 1 mg BID alosetron, 74 to 2 mg BID alosetron, 76 to 4 mg BID alosetron and 68 to 8 mg BID alosetron. […] Patients were required to have symptoms which fulfilled the Rome Criteria for IBS (5) for at least 6 months. […] Daily and weekly symptom data were collected using a recently described electronic touch-tone telephone based system (24,25). Patients underwent a 2 week screening period with no IBS treatment to ensure sufficient baseline level of abdominal pain as well as compliance with the data collection system. Pain was assessed daily on a 5 point scale (0=none; 1=mild; 2=moderate; 3=intense; 4=severe). Average baseline pain over the 2 week screening period was required to be between 1.5-3.3, inclusive, and at least 4 days with at least moderate pain was required for enrolment into the study. Stool consistency data were also collected (1=very hard; 2=hard; 3=formed; 4=loose; and 5=watery). During the screening period an average stool consistency score of ≧2.5 was required for entry into the study in order to exclude those with predominant constipation. Following the screening period, eligible patients were randomised with equal allocation to 12 weeks of study medication (BID) of placebo or alosetron 1, 2, 4 or 8 mg taken prior to meals. Patients were followed for 2 weeks post-treatment. During the screening period, treatment phase and follow-up period, patients were asked daily questions about their IBS symptoms. Once every 7 days, during the treatment phase of the study, patients responded to an additional question as to whether they had obtained adequate relief of their IBS-related abdominal pain and discomfort during the previous 7 days. For this study, a responder was prospectively defined as a patient who completed the treatment phase of the study and reported adequate relief of their IBS pain and discomfort for at least 6 weeks. […] In addition, a monthly responder was defined as a patient who reported adequate relief of their IBS pain and discomfort for at least 2 weeks per month. For the monthly analysis, a last observation carried forward procedure was employed, whereby a month with all missing weeks was assigned the number of weeks with adequate relief from the previous non-missing month. Thus, this analysis satisfied the Intent-to-Treat principle by including all patients and months. Treatment groups were compared for the proportion of patients defined as responders, for both endpoints, using a Mantel-Haenszel test stratified for investigator cluster. Finally, the proportion of weeks with adequate relief was compared between treatment groups using a log-rank test. Daily stool consistency scores and daily number of bowel movements were averaged over the baseline, weekly for weeks 1-4, and monthly (weeks 1-4, 5-8, and 9-12) intervals. In addition, the proportion of days patients experienced a sense of urgency was calculated over the monthly and weekly intervals. For the monthly intervals, the treatment groups were compared for change from baseline using a van Elteren test adjusted for investigator cluster. For the weekly intervals, the treatment groups were compared at each week using a van Elteren test adjusted for-investigator cluster.

For series [3], the system named is normal volunteers. The settings on record: cited from earlier work.
[4] abbreviates: female patients, alosetron 1 mg BID.
Setting [5] is: female patients, alosetron 1 mg BID, month 1.
Where [6] appears, read: female patients, alosetron 1 mg BID, month 2.
[7] abbreviates: female patients, alosetron 1 mg BID, month 3.
The mark [8] stands for this setting: female patients, alosetron 2 mg BID.
The mark [9] stands for this setting: female patients, alosetron 4 mg BID.
[10] abbreviates: female patients, alosetron 8 mg BID.

On to `Cc1[nH]cnc1CN1CCc2c(c3ccccc3n2C)C1=O` [Alosetron, 2,3,4,5-tetrahydro-5-methyl-2-[(5-methyl-1 H-imidazol-4-yl)methyl]-1H-pyrido[4,3-b]indol-1-one], for which the colonic transit entry in series [1] (IBS patients, preliminary reports) is “slow colonic transit”. For the same compound, the abdominal pain result in series [1] (preliminary reports) was “improve abdominal pain”. Also, in series [2] (female IBS patients), the “abdominal pain and bowel function” value was “significantly improved”. In series [2] (setting [4]), the “more responders for adequate relief as compared to placebo” value was 27%. In addition, the “% Responders (adequate relief of IBS pain and discomfort)” value in series [2] (setting [4]) worked out at 60%; in series [2] (setting [8]), 59%; in series [2] (setting [9]), 51%; in series [2] (setting [10]), 52%; in series [2] (male patients, alosetron 1 mg BID), 20%; in series [2] (male patients, alosetron 2 mg BID), 50%. The “% Responders (adequate relief of IBS pain and discomfort)” value in series [2] (male patients, alosetron 4 mg BID) is 54%; in series [2] (male patients, alosetron 8 mg BID) it was 52%. In series [2] (female patients, alosetron 1 mg BID, each month), the monthly adequate relief result was “statistically significant improvement”. In addition, the “% Responders, monthly intervals (adequate relief)” value in series [2] (setting [5]) was found to be 53%; in series [2] (setting [6]), 62%; in series [2] (setting [7]), 60%. The “increase in monthly responders above placebo” value in series [2] (setting [5]) came to 21%; in series [2] (setting [6]), 20%; in series [2] (setting [7]), 24%. Further, in series [2] (female patients, benefit persisted throughout 12 week treatment), the “time of treatment after which a statistically significant benefit over placebo in bowel parameters was achieved” value is reported as 1 week. Further, the “% Days with Urgency” value in series [2] (setting [4]) is listed as 33.0%; in series [2] (setting [8]), 35.9%; in series [2] (setting [9]), 37.8%; in series [2] (setting [10]), 41.5%. The “Stool # per day” value in series [2] (setting [4]) is reported as 1.4; in series [2] (setting [8]), 1.7; in series [2] (setting [9]), 1.8; in series [2] (setting [10]), 1.3. Further, the “Stool Consistentcy” value in series [2] (setting [4]) worked out at 2.1; in series [2] (setting [8]), 2.2; in series [2] (setting [9]) it was 2.4; in series [2] (setting [10]), 1.8. In addition, the “% Weeks with adequate relief” value was 58% in series [2] (setting [4]), 50% in series [2] (setting [8]), 50% in series [2] (setting [9]) and 50% in series [2] (setting [10]). Further, the “stool consistency, bowel movement frequency and proportion of days with urgency as compared to placebo” value in series [2] (female patients, most doses of alosetron) is given as “significantly improved”. The “proportion of weeks with adequate relief” value in series [2] (male patients) is reported as “no meaningful benefit”. In addition, the “responders for adequate relief relative to placebo” value in series [2] (male population, any dose of alosetron) was “No meaningful improvement relative to placebo”. Besides, the “bowel-related functions with the exception of stool consistency, versus placebo” value in series [2] (males) is given as “no significant improvement over placebo”. Moreover, the “monthly adequate relief relative to placebo” value in series [2] (males, any month, any dose of alosetron) is “No improvement relative to placebo”. Moreover, in series [2] (males, doses of alosetron higher than 1 mg BID), the stool consistency entry is listed as “improved significantly”. In addition, the tolerability result in series [2] (nonconstipated female IBS patients) was “well tolerated”.

In the case of `CN1C2CCCC1CC(NC(=O)c1nn(C)c3ccccc13)C2` (stereo not shown) [granisetron], in series [1] (IBS patients), the post-prandial motor activity entry is “reduce post-prandial motor activity” and the rectal sensitivity result is “decrease in rectal sensitivity”.

On to `Cc1nccn1CC1CCc2c(c3ccccc3n2C)C1=O` (stereo not shown) [ondansetron], for which, in series [1] (diarrhoea-predominant IBS patients), the stool consistency result was “improves stool consistency”. Moreover, the rectal compliance entry in series [1] (patients with IBS) was “increases rectal compliance”. The “contractile response of the colon” value in series [3] (healthy volunteers, early postprandial period) was “inhibits the contractile response of the colon”. Also, in series [3] (normal volunteers), the colonic transit entry is “slow colonic transit”.
